Biological target: T1, IKKε (Homo sapiens, UniProt Q14164)
T1 construct: His-tag; made in house; host or cells: Sf9 insect cells
T1 sequence (Q14164 1-716): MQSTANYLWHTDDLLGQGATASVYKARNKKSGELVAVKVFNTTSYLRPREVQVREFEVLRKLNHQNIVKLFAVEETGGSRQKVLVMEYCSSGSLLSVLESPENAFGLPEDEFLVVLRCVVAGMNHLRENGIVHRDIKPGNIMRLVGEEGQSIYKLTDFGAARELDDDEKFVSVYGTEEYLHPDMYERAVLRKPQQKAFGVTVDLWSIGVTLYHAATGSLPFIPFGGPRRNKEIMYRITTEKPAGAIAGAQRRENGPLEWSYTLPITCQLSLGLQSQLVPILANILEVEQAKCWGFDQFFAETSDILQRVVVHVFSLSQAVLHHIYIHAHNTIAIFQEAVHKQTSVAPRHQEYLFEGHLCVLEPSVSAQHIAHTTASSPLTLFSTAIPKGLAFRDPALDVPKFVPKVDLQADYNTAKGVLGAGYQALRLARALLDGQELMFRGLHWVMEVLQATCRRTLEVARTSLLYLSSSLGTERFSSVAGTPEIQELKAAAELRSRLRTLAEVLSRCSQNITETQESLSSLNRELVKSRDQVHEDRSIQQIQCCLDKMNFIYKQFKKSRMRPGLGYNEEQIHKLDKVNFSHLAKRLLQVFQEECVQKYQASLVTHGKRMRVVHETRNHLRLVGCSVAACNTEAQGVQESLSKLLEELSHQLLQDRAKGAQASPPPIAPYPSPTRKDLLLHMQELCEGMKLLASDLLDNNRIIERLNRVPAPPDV
Assay: In-vitro IKKε kinase assay ([γ33]ATP filter-plate)
Format: biochemical
Settings: text bins; read-out: IC50 for inhibition of the kinase activity of IKKε
How it was run: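 His-tagged Sf9-expressed kinases at 0.1 or 0.02 μg/ml (TBK1) and 0.1 or 0.015 μg/ml (IKKε) for normal and sensitized formats, with myelin basic protein or casein substrate. ATP was at 2×Km (60 μM TBK1, 32 μM IKKε) plus 0.3 μCi [γ33]ATP. Reactions ran 30-45 min, were captured on P-81 filters, and counts were normalized to DMSO.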

| SMILES | IC50 [nM] |
| --- | --- |
| COc1ccc(Nc2ncc(C)c(-c3cccc(C#N)c3)n2)cc1OC [compound 304, 3-{2-[(3,4-Dimethoxyphenyl)amino]-5-methylpyrimidin-4-yl}benzonitrile] | 50 to 500 |
| COc1ccc(-c2ccnc(Nc3cccc(S(=O)(=O)NCCCO)c3)n2)cc1C#N [compound 306, 3-{[4-(3-Cyano-4-methoxyphenyl)pyrimidin-2-yl]amino}-N-(3-hydroxypropyl) benzenesulfonamide] | 50 to 500 |
| COc1ccc(-c2ccnc(Nc3ccc(S(=O)(=O)N4CCN(C)CC4)cc3)n2)cc1C#N [compound 308, 2-Methoxy-5-[2-({4-[(4-methylpiperazin-1-yl)sulfonyl]phenyl}amino)pyrimidin-4-yl]benzonitrile] | 50 to 500 |
| COc1ccc(-c2ccnc(Nc3cccc(S(=O)(=O)NCCO)c3)n2)cc1C#N [compound 309, 3-{[4-(3-Cyano-4-methoxyphenyl)pyrimidin-2-yl]amino}-N-(2-hydroxyethyl) benzenesulfonamide] | 50 to 500 |
| COc1ccc(Nc2nccc(-c3cccc(C#N)c3)n2)cc1 [compound 319, 3-{2-[(4-Methoxyphenyl)amino]pyrimidin-4-yl}benzonitrile] | 50 to 500 |
| COc1ccc(-c2ccnc(Nc3cccc(N)c3)n2)cc1C#N [compound 321, 5-{2-[(3-Aminophenyl)amino]pyrimidin-4-yl}-2-methoxybenzonitrile] | 5 to 50 |
| COc1ccc(-c2ccnc(Nc3ccc(S(N)(=O)=O)cc3)n2)cc1C#N [compound 323, 4-{[4-(3-Cyano-4-methoxyphenyl)pyrimidin-2-yl]amino} benzenesulfonamide] | 5 to 50 |
| COc1cc(NC(=O)NC2CCCC2)cc(Nc2nccc(-c3ccc(OC4CCN(C(C)=O)CC4)c(C#N)c3)n2)c1 [compound 333, 1-{3-[(4-{4-[(1-Acetylpiperidin-4-yl)oxy]-3-cyanophenyl}pyrimidin-2-yl)amino]-5-methoxyphenyl}-3-cyclopentylurea] | 5 to 50 |
| N#Cc1cccc(-c2ccnc(Nc3cccc(Cl)c3)n2)c1 [compound 338, 3-{2-[(3-Chlorophenyl)amino]pyrimidin-4-yl}benzonitrile] | 50 to 500 |
| COc1ccc(-c2ccnc(Nc3cccc(NC(=O)NC4CCCC4)c3)n2)cc1C#N [compound 348, 1-(3-{[4-(3-Cyano-4-methoxyphenyl)pyrimidin-2-yl]amino}phenyl)-3-cyclopentylurea] | 50 to 500 |
| COc1ccc(Nc2nccc(-c3cccc(C#N)c3)n2)cc1OC [compound 352, 3-{2-[(3,4-Dimethoxyphenyl)amino]pyrimidin-4-yl}benzonitrile] | 5 to 50 |

Next, values leading:

| IC50 [nM] | SMILES |
| --- | --- |
| 5 to 50 | COc1ccc(-c2ccnc(Nc3cccc(NC(=O)NCCO)c3)n2)cc1C#N [compound 301, 1-(3-{[4-(3-Cyano-4-methoxyphenyl)pyrimidin-2-yl]amino}phenyl)-3-(2-hydroxyethyl)urea] |
| 5 to 50 | COc1ccc(-c2ccnc(Nc3cccc(NC(=O)NCCCO)c3)n2)cc1C#N [compound 310, 1-(3-{[4-(3-Cyano-4-methoxyphenyl)pyrimidin-2-yl]amino}phenyl)-3-(3-hydroxypropyl)urea] |
| 50 to 500 | COc1cc(Nc2nccc(-c3ccc(OC)c(C#N)c3)n2)ccc1C [compound 325, 2-Methoxy-5-{2-[(3-methoxy-4-methylphenyl)amino]pyrimidin-4-yl}benzonitrile] |
| 5 to 50 | COc1cc(NC(=O)CN(C)C)cc(Nc2nccc(-c3ccc(OC)c(C#N)c3)n2)c1 [compound 336, N-(3-{[4-(3-Cyano-4-methoxyphenyl)pyrimidin-2-yl]amino}-5-methoxyphenyl)-N~2~,N~2~- dimethylglycinamide] |
| 50 to 500 | COc1cc(NC(=O)c2ccncc2)cc(Nc2nccc(-c3ccc(OC)c(C#N)c3)n2)c1 [compound 357] |
| 50 to 500 | COc1cc(NC(=O)NCCN(C)C)cc(Nc2nccc(-c3ccc(OC)c(C#N)c3)n2)c1 [compound 360, 1-(3-{[4-(3-Cyano-4-methoxyphenyl)pyrimidin-2-yl]amino}-5-methoxyphenyl)-3-[2-(dimethylamino)ethyl]urea] |

— patent US20150352108A1, “AMINO-PYRIMIDINE COMPOUNDS AS INHIBITORS OF TBK1 AND/OR IKK EPSILON” (Alzheimer's Institute of America, priority 2009, published 2015)
